This is an account of results in patent publication US11576884B2, “Amino acid compositions and uses thereof” (University of Florida Research Foundation, Incorporated, priority 2016, dated 2023).

The structures appear in SMILES notation.

The test system of this assay is Lgr5. As to the kind of experiment: Western blot for Lgr5 protein. The format is in vivo, NIH Swiss mice. Conditions: individual amino acid by gastric gavage (300 ul OD) for 6 days; 0 Gy and 5 Gy irradiated mice. On the procedure:
For FIGS. 9-13, the data is from Male NIH Swiss mice (8 weeks) treated with individual amino acids (FIG. 9 (valine); FIG. 10 (tryptophan); FIG. 11 (serine); FIG. 12 (tyrosine); FIG. 13 (threonine)), as by gastric savage (300 ul OD) for a period of 6 days. Animals were sacrificed on day 6 by CO2 euthanasia and tissues collected for resolving the protein by western blot analysis. Lgr5 (100 KD) was used as the marker for crypt stem cell proliferation. These experiments are repeated at least 4 times (data shown) from 4 different mice.
Control groups were given normal saline. […] Mice fasted for 8 hours prior to gavage.
Signals were detected with Odyssey CLX from LI-COR.
Background: Immunoblotting shows a protein as a band on a membrane.

For `CC(C)[C@H](N)C(=O)O` [valine], the Lgr5 protein levels result is listed as “increases”.
